Reference: patent US10766928B2, “Targeted conformationally-constrained kinked endosomal disrupting peptides” (priority 2012, dated 2020)
Converted amounts (≈) assume the structure as drawn. Like-named read-outs stand apart in the source and are kept apart here. Non-standard residues stand in square brackets, D forms with d. Residues, ends and D or L forms follow the SMILES beside them. *: point of attachment. Pentanoyl(5-NH-cholesteryl) = CC(C)CCC[C@@H](C)[C@H]1CC[C@H]2[C@@H]3CC=C4C[C@@H](NCCCCC(=O)*)CC[C@]4(C)[C@H]3CC[C@]12C; Cholesteryloxycarbonyl = CC(C)CCC[C@@H](C)[C@H]1CC[C@H]2[C@@H]3CC=C4C[C@@H](OC(=O)*)CC[C@]4(C)[C@H]3CC[C@]12C; PEG3 = NCCOCCOCCOCCC(=O)O; Pra = C#CC[C@H](N)C(=O)O; Aib = CC(C)(N)C(=O)O; Ahx = NCCCCCC(=O)O; βAla = NCCC(=O)O

How the values were obtained:
[1] = tested on: endosomes of Jurkat lymphocytes; experiment: Endosome disruption in Jurkat lymphocytes: release of carboxyfluorescein from disulfide probe Compound 2, flow cytometry; conditions: 14 h
In short: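 Human Jurkat cells treated with compounds plus disulfide probe Compound 2 (2.5 μM) for 14 h at 37 °C. Cytoplasmic release of pH-sensitive fluorophore Compound 3 quantified by flow cytometry. IC50 by non-linear regression; efficacy as % fluorescence change relative to Compound 1 maximum (100%).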

[2] = Thermodynamic solubility in PBS (pH 7.4); assay type: physicochemical; conditions: phosphate buffered saline; for solubility at 24 h: Table 1
Excerpt: Values in parentheses represent 95% confidence intervals. N.D., not determined.
Measurements represent duplicate or more replicates, with active peptides subjected to multiple replicates. ND: not determined. The peptide was non-toxic and soluble in cell culture medium at this concentration.

[3] = pH 7.4, Table 1, PBS pH 7.4, 24 hours at 22° C., ±S.D., read-out: Solubility (aq.)
[4] = PBS pH 7.4, 24 hours at 22° C., ±S.D., read-out: Solubility (aq.)

| SMILES | EC50 [1] [nM] | IC50 (Jurkat lymphocytes; 48 h) [nM] | solubility thermodynamic at 24 h [2, 3] [µM] | solubility at 24 h [2, 4] [µM] | Efficacy (% of 1) ([1]; Table 2, % of the effect of compound 1, calculated span of dose-response curve, ± standard deviation, Jurkat) [%] | EC50 ([1]; read-out: Potency, Table 2, EC50 ± standard deviation, Jurkat lymphocytes, disulfide-linked fluorescent probe (2.5 μM)) [nM] | IC50 (Jurkat lymphocytes; read-out: Toxicity, Table 3, IC50, Jurkat, 48 h at 37° C., footnote a: non-toxic and soluble in cell culture medium at this concentration) [nM] | solubility thermodynamic at 24 h ([2]; pH 7.4, Table 3, PBS pH 7.4, 24 h at 22° C., read-out: Solubility) [µM] |
| --- | --- | --- | --- | --- | --- | --- | --- | --- |
| CC(C)CCC[C@@H](C)[C@H]1CC[C@H]2[C@@H]3CC=C4C[C@@H](NCCCCC(=O)NCCC(=O)N[C@@H](CCC(=O)O)C(=O)N[C@@H](CCC(=O)O)C(=O)NCCCCCC(=O)NC(C)(C)C(=O)NC(C)(C)C(=O)NC(C)(C)C(=O)N[C@@H](Cc5c[nH]c6ccccc56)C(=O)N[C@@H](Cc5c[nH]c6ccccc56)C(=O)N[C@@H](C)C(=O)N[C@@H](Cc5ccc(O)cc5)C(=O)N[C@@H](Cc5c[nH]c6ccccc56)C(=O)N5CCC[C@H]5C(=O)N5CCC[C@H]5C(=O)N[C@H](C(=O)N[C@@H](C)C(N)=O)C(C)C)CC[C@]4(C)[C@H]3CC[C@]12C [Compound 9, R = BEEXUUUWWAYWPPVA-CONH2] ({Pentanoyl(5-NH-cholesteryl)-βAla}-EE[Ahx][Aib][Aib][Aib]WWAYWPPVA-NH2) | 400 | 11000 | 12 ± 1 (≈ 28.1 µg/mL) | – | – | – | – | – |
| C#CC[C@H](NC(=O)[C@H](CCC(=O)O)NC(=O)[C@H](CCC(=O)O)NC(=O)CCNC(=O)CCNC(=O)O[C@H]1CC[C@@]2(C)C(=CC[C@H]3[C@@H]4CC[C@H]([C@H](C)CCCC(C)C)[C@@]4(C)CC[C@@H]32)C1)C(=O)NCCOCCOCCOCCC(=O)NCCOCCOCCOCCC(=O)NC(C)(C)C(=O)NC(C)(C)C(=O)NC(C)(C)C(=O)NC(C)(C)C(=O)N[C@@H](Cc1c[nH]c2ccccc12)C(=O)N[C@@H](Cc1c[nH]c2ccccc12)C(=O)N[C@@H](C)C(=O)N[C@@H](Cc1ccc(O)cc1)C(=O)N[C@@H](Cc1c[nH]c2ccccc12)C(=O)N1CCC[C@H]1C(=O)N1CCC[C@H]1C(=O)N[C@H](C(=O)N[C@H](C(N)=O)C(C)C)C(C)C [Compound 36, R″ = BEEZOOUUUUWWAYWPPVV-CONH2] ({Cholesteryloxycarbonyl-βAla-βAla}-EE[Pra][PEG3][PEG3][Aib][Aib][Aib][Aib]WWAYWPPVV-NH2) | 60 | 13000 | 233 ± 21 (≈ 666 µg/mL) | – | – | – | – | – |
| C#CC[C@H](NC(=O)CCNC(=O)CCNC(=O)O[C@H]1CC[C@@]2(C)C(=CC[C@H]3[C@@H]4CC[C@H]([C@H](C)CCCC(C)C)[C@@]4(C)CC[C@@H]32)C1)C(=O)NCCOCCOCCOCCC(=O)NCCOCCOCCOCCC(=O)NC(C)(C)C(=O)NC(C)(C)C(=O)NC(C)(C)C(=O)NC(C)(C)C(=O)N[C@@H](Cc1c[nH]c2ccccc12)C(=O)N[C@@H](Cc1c[nH]c2ccccc12)C(=O)N[C@@H](C)C(=O)N[C@@H](Cc1ccc(O)cc1)C(=O)N[C@@H](Cc1c[nH]c2ccccc12)C(=O)N1CCC[C@H]1C(=O)N1CCC[C@H]1C(=O)N[C@H](C(=O)N[C@@H](C)C(N)=O)C(C)C [Compound 33, R″ = BZOOUUUUWWAYWPPVA-CONH2] ({Cholesteryloxycarbonyl-βAla-βAla}-[Pra][PEG3][PEG3][Aib][Aib][Aib][Aib]WWAYWPPVA-NH2) | 130 | > 100000 | – | 2 (≈ 5.14 µg/mL) | – | – | – | – |
| CC(C)CCC[C@@H](C)[C@H]1CC[C@H]2[C@@H]3CC=C4C[C@@H](NCCCCC(=O)NCCC(=O)N[C@@H](CCC(=O)O)C(=O)N[C@@H](CCC(=O)O)C(=O)NCCOCCOCCOCCC(=O)NCCOCCOCCOCCC(=O)NC(C)(C)C(=O)NC(C)(C)C(=O)NC(C)(C)C(=O)NC(C)(C)C(=O)N[C@@H](Cc5c[nH]c6ccccc56)C(=O)N[C@@H](Cc5c[nH]c6ccccc56)C(=O)N[C@@H](C)C(=O)N[C@@H](Cc5ccc(O)cc5)C(=O)N[C@@H](Cc5c[nH]c6ccccc56)C(=O)N5CCC[C@H]5C(=O)N5CCC[C@H]5C(=O)N[C@H](C(=O)N[C@@H](C)C(N)=O)C(C)C)CC[C@]4(C)[C@H]3CC[C@]12C [Compound 26, R = BEEOOUUUUWWAYWPPVA-CONH2] ({Pentanoyl(5-NH-cholesteryl)-βAla}-EE[PEG3][PEG3][Aib][Aib][Aib][Aib]WWAYWPPVA-NH2) | 100 | 8000 | – | 14 (≈ 38.1 µg/mL) | – | – | – | – |
| CC(C)CCC[C@@H](C)[C@H]1CC[C@H]2[C@@H]3CC=C4C[C@@H](OC(=O)NCCC(=O)NCCC(=O)N[C@@H](CCC(=O)O)C(=O)N[C@@H](CCC(=O)O)C(=O)NCCOCCOCCOCCC(=O)NCCOCCOCCOCCC(=O)NC(C)(C)C(=O)NC(C)(C)C(=O)NC(C)(C)C(=O)NC(C)(C)C(=O)N[C@@H](Cc5c[nH]c6ccccc56)C(=O)N[C@@H](Cc5c[nH]c6ccccc56)C(=O)N[C@@H](C)C(=O)N[C@@H](Cc5ccc(O)cc5)C(=O)N[C@@H](Cc5c[nH]c6ccccc56)C(=O)N5CCC[C@H]5C(=O)N5CCC[C@H]5C(=O)N[C@H](C(=O)N[C@@H](C)C(N)=O)C(C)C)CC[C@]4(C)[C@H]3CC[C@]12C [Compound 34, R″ = BEEOOUUUUWWAYWPPVA-CONH2] ({Cholesteryloxycarbonyl-βAla-βAla}-EE[PEG3][PEG3][Aib][Aib][Aib][Aib]WWAYWPPVA-NH2) | 100 | 17000 | – | 405 (≈ 1110 µg/mL) | – | – | – | – |
| CC(C)[C@H](NC(=O)[C@@H](NC(=O)[C@@H]1CCCN1C(=O)[C@@H]1CCCN1C(=O)[C@H](Cc1ccc(O)cc1)NC(=O)[C@H](Cc1c[nH]c2ccccc12)NC(=O)[C@H](C)NC(=O)[C@H](Cc1c[nH]c2ccccc12)NC(=O)[C@H](Cc1c[nH]c2ccccc12)NC(=O)[C@H](C)NC(=O)[C@H](Cc1c[nH]c2ccccc12)NC(=O)[C@H](Cc1c[nH]c2ccccc12)NC(=O)C(C)(C)NC(=O)C(C)(C)NC(=O)C(C)(C)NC(=O)C(C)(C)N)C(C)C)C(N)=O [Compound 79] (H-[Aib][Aib][Aib][Aib]WWAWWAWYPPVV-NH2) | – | – | – | – | 86 ± 5 | 220 ± 60 | > 16000 | 2 ± 1 (≈ 3.97 µg/mL) |
